Earlier results as cited in patent US20220370378A1 (SOCIETE DES PRODUITS NESTLE S.A., priority 2019, published 2022).

Columns and labels:
[1] = system: GLUT4 translocation in skeletal muscle cells; details: single-dose administration, compared among three inositol isomers
[2] = humans

mean time to reach the maximum level after ingestion [2]: about 3.8 h
Structure (SMILES): O[C@H]1[C@H](O)[C@@H](O)[C@H](O)[C@@H](O)[C@@H]1O [scyllo-inositol, (1r,2r,3r,4r,5r,6r)-Cyclohexane-1,2,3,4,5,6-hexol]
GLUT4 translocation [1]: most efficiently among three inositol isomers
